Results published in the NIST ThermoML archive (doi:10.1021/je034208m).

Test: xn = mol fraction of the nth substance listed
Conditions: 101.33 kPa, Liquid; for speed of sound: Sing-around technique in a fixed-path interferometer

CCCC(C)O (centres undefined) [pentan-2-ol] + CCCCCCCC
Conditions | mass density, 293.15 K [kg/m3] | mass density, 298.15 K [kg/m3] | mass density, 303.15 K [kg/m3] | speed of sound, 293.15 K [m/s] | speed of sound, 298.15 K [m/s] | speed of sound, 303.15 K [m/s] | viscosity, 293.15 K [mPa·s] | viscosity, 298.15 K [mPa·s] | viscosity, 303.15 K [mPa·s]
x1 = 0.0509 | 705.58 | 701.48 | 697.35 | 1190 | 1170 | 1149 | 0.548 | 0.517 | 0.486
x1 = 0.105 | 709.15 | 705.03 | 700.87 | 1189 | 1169 | 1148 | 0.566 | 0.53 | 0.498
x1 = 0.1853 | 714.98 | 710.84 | 706.65 | 1188 | 1168 | 1147 | 0.598 | 0.56 | 0.525
x1 = 0.2976 | 723.78 | 719.63 | 715.43 | 1188 | 1168 | 1147 | 0.658 | 0.613 | 0.572
x1 = 0.3968 | 732.4 | 728.24 | 724.03 | 1189 | 1169 | 1149 | 0.732 | 0.678 | 0.629
x1 = 0.4953 | 741.91 | 737.73 | 733.5 | 1192 | 1172 | 1153 | 0.841 | 0.77 | 0.709
x1 = 0.5965 | 752.73 | 748.53 | 744.29 | 1198 | 1178 | 1158 | 1.008 | 0.915 | 0.826
x1 = 0.6993 | 764.97 | 760.76 | 756.5 | 1207 | 1187 | 1167 | 1.296 | 1.147 | 1.022
x1 = 0.7971 | 777.92 | 773.74 | 769.48 | 1218 | 1199 | 1179 | 1.727 | 1.495 | 1.307
x1 = 0.8997 | 792.82 | 788.69 | 784.49 | 1233 | 1214 | 1195 | 2.531 | 2.133 | 1.821
x1 = 0.9509 | 800.83 | 796.75 | 792.59 | 1242 | 1223 | 1204 | 3.19 | 2.635 | 2.215
x1 = 1 | 809.04 | 805.01 | 800.9 | 1250 | 1232 | 1214 | 4.001 | 3.273 | 2.708

CCCC(C)O (centres undefined) [pentan-2-ol] + CCCCCCCCCC
Conditions | mass density, 293.15 K [kg/m3] | mass density, 298.15 K [kg/m3] | mass density, 303.15 K [kg/m3] | speed of sound, 293.15 K [m/s] | speed of sound, 298.15 K [m/s] | speed of sound, 303.15 K [m/s] | viscosity, 293.15 K [mPa·s] | viscosity, 298.15 K [mPa·s] | viscosity, 303.15 K [mPa·s]
x1 = 0.0487 | 731.62 | 727.76 | 723.89 | 1251 | 1231 | 1211 | 0.914 | 0.845 | 0.779
x1 = 0.0987 | 733.41 | 729.53 | 725.62 | 1248 | 1228 | 1209 | 0.912 | 0.844 | 0.782
x1 = 0.2043 | 738.14 | 734.23 | 730.28 | 1243 | 1223 | 1204 | 0.956 | 0.882 | 0.81
x1 = 0.2996 | 742.88 | 738.94 | 734.96 | 1239 | 1220 | 1200 | 0.989 | 0.909 | 0.842
x1 = 0.4006 | 748.67 | 744.7 | 740.69 | 1236 | 1216 | 1197 | 1.084 | 0.99 | 0.883
x1 = 0.5017 | 755.31 | 751.3 | 747.25 | 1233 | 1214 | 1194 | 1.149 | 1.044 | 0.952
x1 = 0.6002 | 762.88 | 758.83 | 754.73 | 1232 | 1213 | 1193 | 1.3 | 1.166 | 1.053
x1 = 0.6985 | 771.67 | 767.58 | 763.44 | 1233 | 1214 | 1194 | 1.531 | 1.352 | 1.201
x1 = 0.7992 | 782.4 | 778.29 | 774.12 | 1237 | 1217 | 1198 | 1.914 | 1.646 | 1.439
x1 = 0.8996 | 794.55 | 790.46 | 786.3 | 1242 | 1223 | 1204 | 2.626 | 2.214 | 1.888
x1 = 0.95 | 801.5 | 797.43 | 793.28 | 1246 | 1228 | 1209 | 3.205 | 2.651 | 2.244
x1 = 1 | 809.04 | 805.01 | 800.9 | 1250 | 1232 | 1214 | 4.001 | 3.273 | 2.708

CCCC(C)O (centres undefined) [pentan-2-ol] + CCCCCCCCCCCC
Conditions | mass density, 293.15 K [kg/m3] | mass density, 298.15 K [kg/m3] | mass density, 303.15 K [kg/m3] | speed of sound, 293.15 K [m/s] | speed of sound, 298.15 K [m/s] | speed of sound, 303.15 K [m/s] | viscosity, 293.15 K [mPa·s] | viscosity, 298.15 K [mPa·s] | viscosity, 303.15 K [mPa·s]
x1 = 0.049 | 749.65 | 745.96 | 742.26 | 1294 | 1275 | 1256 | 1.443 | 1.316 | 1.206
x1 = 0.0965 | 750.77 | 747.03 | 743.3 | 1291 | 1271 | 1252 | 1.441 | 1.312 | 1.201
x1 = 0.2065 | 753.81 | 750.05 | 746.25 | 1284 | 1265 | 1245 | 1.438 | 1.307 | 1.194
x1 = 0.2993 | 756.86 | 753.06 | 749.23 | 1278 | 1259 | 1240 | 1.465 | 1.33 | 1.211
x1 = 0.3986 | 760.67 | 756.84 | 752.97 | 1271 | 1252 | 1233 | 1.499 | 1.355 | 1.231
x1 = 0.5046 | 765.6 | 761.71 | 757.79 | 1265 | 1246 | 1227 | 1.563 | 1.406 | 1.27
x1 = 0.5974 | 770.7 | 766.77 | 762.79 | 1260 | 1241 | 1222 | 1.667 | 1.487 | 1.338
x1 = 0.7026 | 777.76 | 773.76 | 769.72 | 1255 | 1236 | 1217 | 1.865 | 1.635 | 1.447
x1 = 0.8001 | 785.82 | 781.77 | 777.66 | 1253 | 1233 | 1214 | 2.205 | 1.9 | 1.652
x1 = 0.8994 | 795.9 | 791.84 | 787.71 | 1251 | 1232 | 1213 | 2.786 | 2.347 | 1.998
x1 = 0.9497 | 802.07 | 798.02 | 793.89 | 1251 | 1232 | 1213 | 3.267 | 2.717 | 2.284
x1 = 1 | 809.04 | 805 | 800.9 | 1250 | 1232 | 1214 | 4.001 | 3.273 | 2.708
